Columns and labels:
[1] = system: hepatocellular carcinoma HepG2 cell line; test: MTT cytotoxicity assay, HepG2; format: cell-based, human; details: Homo sapiens, HepG2, 24 h, 24 h treatment, mean ± SE
Procedure: (§1) All the newly synthesized analogs were evaluated for their in vitro cytotoxicity against the hepatocellular carcinoma HepG2 cell line. Podo was utilized as a reference control in the current study. […] The N-phenyl triazinone derivative 9 was further investigated for its cytotoxic effects against normal liver cell line HL-7702.
(§2) MTT colorimetric assay was carried out to investigate the impact of the newly synthesized compounds 2–11 on hepatocellular carcinoma (HepG2) and normal liver cell line (HL-7702) cell lines. See Section 3.3.1 in Supplementary Material.
(§3) 3.3.1. Cytotoxic activity evaluation
To measure the cytotoxic activity of the synthesized derivatives 2a-11 in hepatocel-lular carcinoma (HepG2) cell line (ATCC Cat No. HB-8065) as well as normal human liver cell line HL-7702 (ATCC Cat. No. 77402), cell viability assay was assessed using MTT assay method. Cells at density of 1 x 104 were seeded in a 96-well plate at 37 °C for 24 h under 5% CO2. After incubation, the cells were treated with different concentrations of the test compounds 2a-11 and incubated for 24 h, then 20 μl of MTT solution at 5 mg/mL was applied and incubated for 4 h at 37 °C. Dimethyl sulphoxide (DMSO) in volume of 100 µl was added to each well to dissolve the purple formazan that had formed. The color inten-sity of the formazan product, which represents the growth condition of the cells, is quan-tified by using an ELISA plate reader (EXL 800, USA) at 570 nm absorbance. The experi-mental conditions were carried out with at least three replicates, and the experiments were repeated at least three times.
3.3.2. Tubulin inhibitions Assay
(§4) Compounds 9, 10 and 11 were evaluated for their tubulin inhibitory activity levels according to the manufacturer’s instructions using # abcam Human Beta-tubulin simplestep […]
3.3.3. Cell cycle analysis of compound 9
Cell cycle analysis in HepG2 cells was investigated using fluorescent Annexin V-FITC/ PI detection kit (BioVision EZCellTM Cell Cycle Analysis Kit Catalog #K920) by flow cytometry assay. HepG2 cells at a density of 2 × 10^5 per well were harvested and washed twice in PBS. After that, the cells were incubated at 37 °C and 5% CO2. […] Afterward, medium was stained with DNA flu-orochrome PI for 15 min at 37 °C. The samples were immediately analyzed using Facs Calibur flow cytometer (Becton and Dickinson, Heidelberg, Germany).
3.3.4. Apoptosis assay for compound 9
Apoptosis in HepG2 cells was investigated using fluorescent Annexin V-FITC/ PI de-tection kit (BioVision Annexin V-FITC Apoptosis Detection Kit, Catalog #: K101) by flow cy-tometry assay. HepG2 cells at a density of 2 × 10^5 per well were treated with compound 9 at its IC50 (μM) for 48 h, then the cells were harvested and stained with Annexin V-FITC/ PI dye for 15 min in the dark at 37 °C. The samples were immediately analyzed using FACS Calibur flow cytometer (Becton and Dickinson, Heidelberg, Germany).
3.3.5. Measurement of mitochondrial membrane potential (MMP) for compound 9 MMP was measured by FACS analysis using abcam ab113852TMRE Mitochondrial Membrane Potential Assay Kit with DiOC2(3) staining using MitoProbe™ DiOC2(3) Assay Kit for Flow Cytometry (M34150). After treatment with compound 9 at its IC50 concentra-tion, cells were stained with DiOC2(3) dye for 30 min in the incubator, then harvested and washed with PBS. DiOC2(3)-stained cells were represented with Annexin binding buffer and incubated at 37 °C for 15 min. The samples were immediately analyzed using cell […]
3.3.6. Effect on p53, Bax and Bcl-2 p53, Bax and Bcl2 enzyme activities in HepG2 cells were detected in the presence of com-pound 9 at its IC50 concentration (μM). The levels of the tumor suppressor gene p53, apoptotic markers Bax as well as the anti-apoptotic marker Bcl-2 were assessed using p53 ELISA kit, Human Bax ELISA kit and Bcl-2 Elisa kit. […]

[2] = system: normal liver cell line HL-7702; test: MTT cytotoxicity assay, normal liver cells; format: cell-based; details: Homo sapiens, L02, 24 h treatment, mean ± SE
Procedure: as §1, §2, §3
To measure the cytotoxic activity of the synthesized derivatives 2a-11 in hepatocel-lular carcinoma (HepG2) cell line (ATCC Cat No. HB-8065) as well as normal human liver cell line HL-7702 (ATCC Cat. No. 77402), cell viability assay was assessed using MTT assay method. Cells at density of 1 x 104 were seeded in a 96-well plate at 37 °C for 24 h under 5% CO2. […] The color inten-sity of the formazan product, which represents the growth condition of the cells, is quan-tified by using an ELISA plate reader (EXL 800, USA) at 570 nm absorbance. […]
as §4
3.3.5. […] The samples were immediately analyzed using cell […]

Compound: COc1ccc(C2=N/C(=C\c3cc(OC)c(OC)c(OC)c3)C(=O)NN2c2ccccc2)cc1OC [Compound 9, (Z)-3-(3,4-Dimethoxyphenyl)-2-Phenyl-5-(3,4,5-Trimethoxybenzylidene)-1,2-Dihydro-1,2,4-Triazin-6(5H)-one]
- IC50 [1]: 1.38 ± 0.15 µM
- IC50 [2]: 29.1 ± 2.03 µM
